Test results as given in patent US11655244B2, “Carbazole compounds and methods of use thereof” (GSNO Therapeutics, Inc, priority 2017, dated 2023).
Read-outs that look alike come from different tables or passages of the source.

How the values were obtained:
[1] = molecular target: T1, GSNOR enzyme (Homo sapiens, UniProt P11766); assay: GSNOR inhibition assay (rate of NADH consumption, 340 nm absorbance); type: biochemical; settings: Table 2b; read-out: IC50 Micromolar
[2] = molecular target: T1, GSNOR enzyme; assay: as above; type: biochemical
Method: The following compounds were also prepared based on the methods described herein, using the appropriate starting materials. Table 2a and Table 2b also provides the % GSNOR inhibition at 20 μM of compounds described herein. […] The buffer was 100 mM phosphate buffer (pH 7.4.) The rate of NADH consumption for each well was determined by ultraviolet spectroscopy. Plates were read on a Molecular Devices Spectra Max UV/Visible Spectrophotometer/plate reader and the change in 340 nm absorbance at 25° C. was recorded for each well at 10 sec intervals over the duration of the recording period (2˜5 minutes). The rate was measured from the linear portion of the curve. Final test compound concentration was 20 μM. The mean % inhibition from 3 test compound wells and 5 control wells was measured as the percentage of the mean no compound+enzyme−the mean no enzyme, no compound control.

[3] = test system: non-alcoholic steatohepatitis (NASH) in male C57BL/6 mice; assay: Non-alcoholic steatohepatitis (NASH) model, Streptozotocin plus 60% kcal fat diet; type: in vivo; settings: for liver to body weight ratio: disease control 0.066; for decrease of percentage collagen proportion area (CPA), Masson's trichrome staining, liver: vs disease control
Method: Timed pregnant mice (n=44) were selected for the study. The delivered pups were subcutaneously injected on post-natal day 2 with 200 μg of Streptozotocin and were allowed to remain with the mother until they reached the weanling age. After weanling, the male pups were selected and fed with 60% kcal fat diet (Research Diet-D12492) for next 6 weeks. All the animals were observed once daily for clinical signs and twice daily for morbidity and mortality.
Mice were dosed with vehicle, Compound 17 (at 3 mg/kg or 10 mg/kg) and 10 mg/kg of reference compound (either Obeticholic acid (OCA) or Elafibranor (ELA, GFT505)) once daily before the start of dark cycle (6:00 PM) from day 0 to 21. Animal body weight measurements were made daily for the complete duration of the experiment. Animals were dosed for 21 days (from week 9 to 12) with the test and reference compounds. Blood glucose was estimated before the treatment start, day 11 and on the termination day. Histopathology analysis including the H&E staining, Masson's trichrome staining and the Oil-red-O (ORO) staining was performed for the liver tissues.

[4] = Table 2a, test compound 20 μM, pH 7.4, 25° C., read-out: % Inhibit. at 20 μM
[5] = Table 2b, test compound 20 uM, read-out: % GSNOR Inhibition at 20 uM

T1 sequence (P11766 whole entry): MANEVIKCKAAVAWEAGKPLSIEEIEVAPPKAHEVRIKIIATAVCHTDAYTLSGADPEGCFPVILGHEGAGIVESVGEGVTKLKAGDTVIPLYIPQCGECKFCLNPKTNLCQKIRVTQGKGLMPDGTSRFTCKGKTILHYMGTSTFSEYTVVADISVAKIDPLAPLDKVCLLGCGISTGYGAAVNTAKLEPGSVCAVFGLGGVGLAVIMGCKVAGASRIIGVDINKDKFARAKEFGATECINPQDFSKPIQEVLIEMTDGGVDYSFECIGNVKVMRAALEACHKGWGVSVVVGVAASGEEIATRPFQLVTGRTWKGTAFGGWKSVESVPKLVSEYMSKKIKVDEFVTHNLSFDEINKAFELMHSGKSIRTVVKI

Compound: NC(=O)CCn1c2cc(Cn3ccnc3)ccc2c2ccc(C(=O)O)cc21 [Compound 8, 9-(3-amino-3-oxopropyl)-7-[(1H-imidazol-1-yl)methyl]-9H-carbazole-2-carboxylic acid]
- IC50 [1]: 1 to 5 µM
- inhibition at 20 µM [2, 4]: 80%
- inhibition at 20 µM [2, 5]: 80%

Compound: NC(=O)c1ccc(-n2c3cc(CNc4nccs4)ccc3c3ccc(C(=O)O)cc32)c([N+](=O)[O-])c1 [Compound J1, 9-(4-carbamoyl-2-nitrophenyl)-7-((thiazol-2-ylamino)methyl)-9H-carbazole-2-carboxylic acid]
- inhibition at 20 µM [2, 4]: 9%

Compound: CSc1ccc(C(=O)/C=C/c2cc(C)c(OC(C)(C)C(=O)O)c(C)c2)cc1 [Elafibranor, reference compound]
- NAS ([3]; 10 mg/kg): 2.67
- ORO (Oil-Red-O) steatosis score relative to disease control ([3]; 10 mg/kg): −11%
- change of liver to body weight ratio compared with disease control ([3]; 10 mg/kg): +40%
- plasma glucose relative to disease control (in words) ([3]; 10 mg/kg once daily): neither OCA nor ELA reduced glucose
- body weight, statistical significance ([3]; 10 mg/kg, day 7 and 12 post-treatment): statistically significant (*p<0.05) increase in body weight
- weight put on relative to naïve controls at day 21 ([3]; 10 mg/kg): +43%
- liver to body weight ratio ([3]; 10 mg/kg): 0.092
- decrease of percentage collagen proportion area (CPA), Masson's trichrome staining, liver ([3]; 10 mg/kg): 54%
- change in body weight (g), Mean ([3]; Day 1, 10 mg/kg once daily): 0.00 g
- change in body weight (g), Mean ([3]; Day 2, 10 mg/kg once daily): 0.70 g
- change in body weight (g), Mean ([3]; Day 3, 10 mg/kg once daily): 1.18 g
- change in body weight (g), Mean ([3]; Day 4, 10 mg/kg once daily): 0.93 g
- change in body weight (g), Mean ([3]; Day 5, 10 mg/kg once daily): 1.42 g
- change in body weight (g), Mean ([3]; Day 6, 10 mg/kg once daily): 1.31 g
- change in body weight (g), Mean ([3]; Day 7, 10 mg/kg once daily): 1.43 g
- change in body weight (g), Mean ([3]; Day 8, 10 mg/kg once daily): 1.49 g
- change in body weight (g), Mean ([3]; Day 9, 10 mg/kg once daily): 1.71 g
- change in body weight (g), Mean ([3]; Day 10, 10 mg/kg once daily): 1.69 g
- change in body weight (g), Mean ([3]; Day 11, 10 mg/kg once daily): 1.47 g
- change in body weight (g), Mean ([3]; Day 12, 10 mg/kg once daily): -0.17 g
- change in body weight (g), Mean ([3]; Day 13, 10 mg/kg once daily): 1.73 g
- change in body weight (g), Mean ([3]; Day 14, 10 mg/kg once daily): 1.96 g
- change in body weight (g), Mean ([3]; Day 15, 10 mg/kg once daily): 2.00 g
- change in body weight (g), Mean ([3]; Day 16, 10 mg/kg once daily): 1.64 g
- change in body weight (g), Mean ([3]; Day 17, 10 mg/kg once daily): 1.82 g
- change in body weight (g), Mean ([3]; Day 18, 10 mg/kg once daily): 2.16 g
- change in body weight (g), Mean ([3]; Day 19, 10 mg/kg once daily): 2.26 g
- change in body weight (g), Mean ([3]; Day 20, 10 mg/kg once daily): 1.88 g
- change in body weight (g), Mean ([3]; Day 21, 10 mg/kg once daily): 2.22 g

Compound: CC[C@H]1[C@@H](O)[C@@H]2[C@H](CC[C@]3(C)[C@@H]([C@H](C)CCC(=O)O)CC[C@@H]23)[C@@]2(C)CC[C@@H](O)C[C@@H]12 [Obeticholic acid, reference compound]
- NAS ([3]; 10 mg/kg): 3.20
- ORO (Oil-Red-O) steatosis score relative to disease control ([3]; 10 mg/kg): −1%
- change of liver to body weight ratio compared with disease control ([3]; 10 mg/kg): −11%
- weight put on relative to naïve controls at day 21 ([3]; 10 mg/kg): +28%
- liver to body weight ratio ([3]; 10 mg/kg): 0.058
- decrease of percentage collagen proportion area (CPA), Masson's trichrome staining, liver ([3]; 10 mg/kg): 50%
- change in body weight (g), Mean ([3]; Day 1, 10 mg/kg once daily): 0.00 g
- change in body weight (g), Mean ([3]; Day 2, 10 mg/kg once daily): 0.43 g
- change in body weight (g), Mean ([3]; Day 3, 10 mg/kg once daily): 0.57 g
- change in body weight (g), Mean ([3]; Day 4, 10 mg/kg once daily): 0.43 g
- change in body weight (g), Mean ([3]; Day 5, 10 mg/kg once daily): 0.45 g
- change in body weight (g), Mean ([3]; Day 6, 10 mg/kg once daily): 0.78 g
- change in body weight (g), Mean ([3]; Day 7, 10 mg/kg once daily): 0.58 g
- change in body weight (g), Mean ([3]; Day 8, 10 mg/kg once daily): 0.89 g
- change in body weight (g), Mean ([3]; Day 9, 10 mg/kg once daily): 0.85 g
- change in body weight (g), Mean ([3]; Day 10, 10 mg/kg once daily): 1.06 g
- change in body weight (g), Mean ([3]; Day 11, 10 mg/kg once daily): 0.78 g
- change in body weight (g), Mean ([3]; Day 12, 10 mg/kg once daily): 0.06 g
- change in body weight (g), Mean ([3]; Day 13, 10 mg/kg once daily): 0.82 g
- change in body weight (g), Mean ([3]; Day 14, 10 mg/kg once daily): 1.05 g
- change in body weight (g), Mean ([3]; Day 15, 10 mg/kg once daily): 0.54 g
- change in body weight (g), Mean ([3]; Day 16, 10 mg/kg once daily): 0.82 g
- change in body weight (g), Mean ([3]; Day 17, 10 mg/kg once daily): 1.43 g
- change in body weight (g), Mean ([3]; Day 18, 10 mg/kg once daily): 1.52 g
- change in body weight (g), Mean ([3]; Day 19, 10 mg/kg once daily): 1.81 g
- change in body weight (g), Mean ([3]; Day 20, 10 mg/kg once daily): 1.62 g
- change in body weight (g), Mean ([3]; Day 21, 10 mg/kg once daily): 1.98 g

Compound: N#Cc1ccc(-n2c3cc(CNc4ncco4)ccc3c3ccc(C(=O)O)cc32)c([N+](=O)[O-])c1 [Compound H1, 9-(4-cyano-2-nitrophenyl)-7-((oxazol-2-ylamino)methyl)-9H-carbazole-2-carboxylic acid]
- inhibition at 20 µM [2, 4]: 0%

Compound: COc1ccc(-n2c3ccc(-n4ccnc4)cc3c3ccc(CCC(=O)O)cc32)cc1 [Compound 24]
- inhibition at 20 µM [2, 5]: 90%

Compound: N#Cc1ccc(-n2c3ccc(-n4ccnc4)cc3c3ccc(CCC(=O)O)cc32)cc1 [Compound 18]
- IC50 [1]: > 5 µM
- inhibition at 20 µM [2, 5]: 72.4%

Compound: N#Cc1ccc(-n2c3cc(CNc4nccs4)ccc3c3ccc(C(=O)O)cc32)c([N+](=O)[O-])c1 [Compound G1, 9-(4-cyano-2-nitrophenyl)-7-((thiazol-2-ylamino)methyl)-9H-carbazole-2-carboxylic acid]
- inhibition at 20 µM [2, 4]: 15%

Compound: NC(=O)CCn1c2ccc(-n3ccnc3)cc2c2cc(F)c(C(=O)O)cc21 [Compound E1, 9-(3-amino-3-oxopropyl)-3-fluoro-6-(1H-imidazol-1-yl)-9H-carbazole-2-carboxylic acid]
- inhibition at 20 µM [2, 4]: 18%

Compound: O=C(O)CCc1ccc2c3cc(-n4ccnc4)ccc3n(-c3ccc(Cl)cc3)c2c1 [Compound 22]
- inhibition at 20 µM [2, 5]: 81.4%
